Assay [1] addresses HDAC1 (Homo sapiens (Human), UniProt Q13547). To be noted: read-out: HDAC1 IC50.
Method: Assay protocol: In brief, compounds were titrated in 100% DMSO via accoustic dispensing directly to the assay plate using the ECHO 550 [Labcyte]. HDAC enzymes at the concentrations indicated above were added in assay buffer to the assay plates containing the compounds using a Combi [Thermo Scientific]. The wells were mixed, and the plates were allowed to pre-incubate at ambient temperature for 3 h. After the 3 h, the appropriate substrate, at the concentrations indicated above, was added to the wells using a Combi. The wells were mixed, and the plates were allowed to incubate at ambient temperature for 1 h. After the 1 h, the appropriate Developer/stop solution was added to the wells using a Combi. The wells were mixed, and the plates were allowed to incubate at ambient temperature for 1 h. […] Data were analyzed using 4P curve fitting with Activity Base [IDBS] software.
In assay [2] the target is HDAC5 (Homo sapiens (Human), UniProt Q9UQL6). To be noted: read-out: HDAC5 IC50.
Assay [3] concerns the target HDAC8 (Homo sapiens (Human), UniProt Q9BY41). The conditions noted are these: read-out: HDAC8 IC50.

We go through 19 compounds from patent US11066396B2 (priority 2016, dated 2021).

Chain of HDAC5 (Q9UQL6 656-1122): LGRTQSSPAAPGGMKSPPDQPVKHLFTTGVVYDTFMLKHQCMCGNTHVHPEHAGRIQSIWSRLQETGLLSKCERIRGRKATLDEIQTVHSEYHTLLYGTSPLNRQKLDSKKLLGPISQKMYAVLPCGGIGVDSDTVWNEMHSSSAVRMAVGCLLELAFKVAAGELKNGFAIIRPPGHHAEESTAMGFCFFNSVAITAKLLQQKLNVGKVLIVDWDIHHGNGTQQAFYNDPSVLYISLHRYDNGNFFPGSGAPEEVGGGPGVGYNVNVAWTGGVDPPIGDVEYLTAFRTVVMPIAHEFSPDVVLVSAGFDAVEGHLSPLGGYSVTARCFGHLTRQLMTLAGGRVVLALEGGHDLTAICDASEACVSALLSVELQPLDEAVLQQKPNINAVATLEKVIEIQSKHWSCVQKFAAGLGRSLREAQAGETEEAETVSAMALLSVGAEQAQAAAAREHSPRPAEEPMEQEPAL
Chain of HDAC8 (Q9BY41 whole entry): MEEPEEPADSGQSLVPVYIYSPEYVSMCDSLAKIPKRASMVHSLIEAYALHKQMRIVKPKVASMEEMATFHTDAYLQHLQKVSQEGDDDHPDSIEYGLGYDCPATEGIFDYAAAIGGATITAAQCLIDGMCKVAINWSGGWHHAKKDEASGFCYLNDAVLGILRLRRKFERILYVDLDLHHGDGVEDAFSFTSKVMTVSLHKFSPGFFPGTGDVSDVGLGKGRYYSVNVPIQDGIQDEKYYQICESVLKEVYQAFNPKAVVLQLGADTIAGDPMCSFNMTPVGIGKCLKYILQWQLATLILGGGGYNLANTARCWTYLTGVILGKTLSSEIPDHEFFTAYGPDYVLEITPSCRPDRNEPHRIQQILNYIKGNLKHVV
Chain of HDAC1 (Q13547 whole entry): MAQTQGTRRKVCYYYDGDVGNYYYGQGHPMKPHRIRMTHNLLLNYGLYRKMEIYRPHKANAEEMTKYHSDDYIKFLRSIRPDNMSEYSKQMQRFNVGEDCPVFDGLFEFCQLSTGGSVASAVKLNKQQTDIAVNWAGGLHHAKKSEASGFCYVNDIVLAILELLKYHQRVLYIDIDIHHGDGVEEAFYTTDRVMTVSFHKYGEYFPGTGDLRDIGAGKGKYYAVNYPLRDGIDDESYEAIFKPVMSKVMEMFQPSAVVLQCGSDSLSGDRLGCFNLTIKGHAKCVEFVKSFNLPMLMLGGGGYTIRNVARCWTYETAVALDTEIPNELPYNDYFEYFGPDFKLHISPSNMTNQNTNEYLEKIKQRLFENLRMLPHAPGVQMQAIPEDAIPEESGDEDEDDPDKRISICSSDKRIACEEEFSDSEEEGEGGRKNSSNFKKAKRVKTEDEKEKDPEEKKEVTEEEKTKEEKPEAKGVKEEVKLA

As usually defined, the IC50 is the point on the concentration scale where inhibition reaches its midpoint. Consider `CC(C(=O)N(Cc1ccc(-c2noc(C(F)(F)F)n2)cn1)c1cccc(F)c1)c1ccn(C)n1` (racemic) [Example 58, N-(3-fluorophenyl)-2-(1-methyl-1H-pyrazol-3-yl)-N-((5-(5-(trifluoromethyl)-1,2,4-oxadiazol-3-yl)pyridin-2-yl)methyl)propanamide], for which the IC50 was found to be 220 nM in assay [1], 730 nM in assay [2] and 1700 nM in assay [3].
Regarding `O=C1CCC(c2ccccc2F)N1c1ccc(-c2noc(C(F)(F)F)n2)cc1F` (racemic) [Example 118, 1-(2-fluoro-4-(5-(trifluoromethyl)-1,2,4-oxadiazol-3-yl)phenyl)-5-(2-fluorophenyl)pyrrolidin-2-one], the results for the IC50 in assay [1], in assay [2] and in assay [3] were 570 nM, 130 nM and 2500 nM, respectively.
On to `O=C(C(Cc1ccc(-c2noc(C(F)(F)F)n2)cn1)c1cccc(C(F)(F)F)c1)N1CC[S+]([O-])CC1` (racemic) [Example 199, 4-(3-{5-[5-(trifluoromethyl)-1,2,4-oxadiazol-3-yl]pyridin-2-yl}-2-[3-(trifluoromethyl)phenyl]propanoyl)-llambda~4~,4-thiazinan-1-one], for which the IC50 worked out at 4100 nM in assay [1], 2100 nM in assay [2] and 9900 nM in assay [3].
Consider `CC(Oc1cc(-c2noc(C(F)(F)F)n2)ccn1)c1nc2ccccc2[nH]1` (racemic) [Example 203, 2-[1-({4-[5-(trifluoromethyl)-1,2,4-oxadiazol-3-yl]pyridin-2-yl}oxy)ethyl]-1H-benzimidazole], for which the IC50 in assay [1] came out at 130 nM; in assay [2], 130 nM; in assay [3], 900 nM.
Consider `CC(Oc1nccc(-c2noc(C(F)(F)F)n2)c1Cl)c1cccnc1` (racemic) [Example 256, 3-chloro-2-[1-(pyridin-3-yl)ethoxy]-4-[5-(trifluoromethyl)-1,2,4-oxadiazol-3-yl]pyridine], for which the IC50 in assay [1] stood at 3300 nM; in assay [2], 200 nM; in assay [3], 2300 nM.
With `O=C1NCCCC1NCc1ccc(-c2noc(C(F)(F)F)n2)cn1` (racemic) [Example 458, 3-[({5-[5-(trifluoromethyl)-1,2,4-oxadiazol-3-yl]pyridin-2-yl}methyl)amino]piperidin-2-one], the results for the IC50 in assay [1], in assay [2] and in assay [3] were 8300 nM, 290 nM and 2800 nM, respectively.
As for `CC(C)C(=O)NC(Cc1ccc(-c2noc(C(F)(F)F)n2)cn1)c1cccc(C(F)(F)F)c1` (racemic) [Example 478, 2-methyl-N-(2-{5-[5-(trifluoromethyl)-1,2,4-oxadiazol-3-yl]pyridin-2-yl}-1-[3-(trifluoromethyl)phenyl]ethyl)propanamide], the IC50 came out at 680 nM in assay [1], 500 nM in assay [2] and 45000 nM in assay [3].
Consider `CCCC(=O)NC(Cc1ccc(-c2noc(C(F)(F)F)n2)cn1)c1cccc(C(F)(F)F)c1` (racemic) [Example 479, N-(2-{5-[5-(trifluoromethyl)-1,2,4-oxadiazol-3-yl]pyridin-2-yl}-1-[3-(trifluoromethyl)phenyl]ethyl)butanamide], for which the IC50 was 610 nM in assay [1], 440 nM in assay [2] and 45000 nM in assay [3].
In the case of `COCC(=O)NC(Cc1ccc(-c2noc(C(F)(F)F)n2)cn1)c1cccc(C(F)(F)F)c1` (racemic) [Example 480, 2-methoxy-N-(2-{5-[5-(trifluoromethyl)-1,2,4-oxadiazol-3-yl]pyridin-2-yl}-1-[3-(trifluoromethyl)phenyl]ethyl)acetamide], the IC50 in assay [1] amounted to 670 nM; in assay [2] it was 620 nM; in assay [3], 5300 nM.
For the compound `CC1(C(=O)NC(Cc2ccc(-c3noc(C(F)(F)F)n3)cn2)c2cccc(C(F)(F)F)c2)COC1` (racemic) [Example 482, 3-methyl-N-(2-{5-[5-(trifluoromethyl)-1,2,4-oxadiazol-3-yl]pyridin-2-yl}-1-[3-(trifluoromethyl)phenyl]ethyl)oxetane-3-carboxamide], the IC50 in assay [1] stood at 790 nM; in assay [2] it was 480 nM; in assay [3] it was 8500 nM.
For `O=C(NC(Cc1ccc(-c2noc(C(F)(F)F)n2)cn1)c1cccc(C(F)(F)F)c1)C1CCOCC1` (racemic) [Example 483, N-(2-{5-[5-(trifluoromethyl)-1,2,4-oxadiazol-3-yl]pyridin-2-yl}-1-[3-(trifluoromethyl)phenyl]ethyl)oxane-4-carboxamide], the IC50 in assay [1] came out at 630 nM; in assay [2], 510 nM; in assay [3], 6100 nM.
On to `O=C(NC(Cc1ccc(-c2noc(C(F)(F)F)n2)cn1)c1cccc(C(F)(F)F)c1)c1ncccn1` (racemic) [Example 484, N-(2-{5-[5-(trifluoromethyl)-1,2,4-oxadiazol-3-yl]pyridin-2-yl}-1-[3-(trifluoromethyl)phenyl]ethyl)pyrimidine-2-carboxamide], for which the IC50 in assay [1] amounted to 600 nM; in assay [2] it was 720 nM; in assay [3], 2500 nM.
In the case of `COc1ncccc1OCc1ccc(-c2noc(C(F)(F)F)n2)cn1` [Example 308, 2-methoxy-3-({5-[5-(trifluoromethyl)-1,2,4-oxadiazol-3-yl]pyridin-2-yl}methoxy)pyridine], the IC50 turned out to be 740 nM in assay [1] and 310 nM in assay [2].
As to `FC(F)(F)c1nc(-c2ccc(COc3cc(Cl)ncn3)nc2)no1` [Example 309, 4-chloro-6-({5-[5-(trifluoromethyl)-1,2,4-oxadiazol-3-yl]pyridin-2-yl}methoxy)pyrimidine], the IC50 in assay [1] amounted to 4200 nM; in assay [2], 450 nM.
For `FC(F)(F)c1nc(-c2ccc(COc3ccc(Cl)nc3)nc2)no1` [Example 310, 2-chloro-5-({5-[5-(trifluoromethyl)-1,2,4-oxadiazol-3-yl]pyridin-2-yl}methoxy)pyridine], the IC50 was determined as 2400 nM in assay [1] and 770 nM in assay [2].
For the compound `FC(F)(F)c1nc(-c2ccc(COc3ccc4cnccc4n3)nc2)no1` [Example 311, 2-({5-[5-(trifluoromethyl)-1,2,4-oxadiazol-3-yl]pyridin-2-yl}methoxy)-1,6-naphthyridine], the values for the IC50 in assay [1] and in assay [2] were 880 nM and 540 nM, respectively.
`CC1(C)COCCN1C(=O)[C@@H]1CCC(=O)N1c1ccc(-c2noc(C(F)(F)F)n2)c(F)c1` [Example 344, (5S)-5-[(3,3-dimethylmorpholin-4-yl)carbonyl]-1-{3-fluoro-4-[5-(trifluoromethyl)-1,2,4-oxadiazol-3-yl]phenyl}pyrrolidin-2-one]: the IC50 stood at 45000 nM in assay [1] and 1900 nM in assay [2].
Turning to `CC1(C)C(=O)NCCN1C(=O)[C@@H]1CCC(=O)N1c1ccc(-c2noc(C(F)(F)F)n2)c(F)c1` [Example 345, 4-(1-{3-fluoro-4-[5-(trifluoromethyl)-1,2,4-oxadiazol-3-yl]phenyl}-5-oxo-L-prolyl)-3,3-dimethylpiperazin-2-one], the IC50 in assay [1] was 43000 nM; in assay [2], 1500 nM.
With `CCS(=O)(=O)N(Cc1ccc(-c2noc(C(F)(F)F)n2)cc1)c1cccc(C(F)(F)F)c1` [Example 491, N-({4-[5-(trifluoromethyl)-1,2,4-oxadiazol-3-yl]phenyl}methyl)-N-[3-(trifluoromethyl)phenyl]ethanesulfonamide], the IC50 in assay [1] stood at 820 nM; in assay [2], 140 nM.
